Structures can show the parent of a compound that is named as a salt. Blank lines part the entries; values can stand above or below the compound they belong to.
Key:
[1] = humans, cited from earlier work
in vivo [2] = conditions: male, Wistar, rat, plasma
Experimental: A serial blood sampling was performed from each animal. The blood samples were collected at 0.00 (pre-dose), 0.08, 0.25, 0.5, 1, 2, 4, 6, 8, 24 hrs. […] Pharmacokinetic parameters were calculated using the non-compartmental analysis (NCA) module of Phoenix-WinNonlin® software version 6.4.

in vivo [3] = test: in vivo
Experimental: A serial blood sampling was performed from each animal. The blood samples were collected at 0.00 (pre-dose), 0.083, 0.25, 0.5, 1, 2, 4, 6, 8, 24 hrs. […] Pharmacokinetic parameters were calculated using the non-compartmental analysis (NCA) module of Phoenix-WinNonlin® software version 6.4.

[4] = intranasal, 0.05, 0.1 and 0.2 mg/kg, rats
in vivo [5] = conditions: male, Wistar, rat, inhaled or intranasal, mean ± SD, N=4; for half-life: T½
[6] = endocyclic and exocyclic double bonds to epoxides; tertiary amine to N-oxide; cited from earlier work
[7] = inhaled or intranasal, 0.02 mg/kg
[8] = New Zealand white, rabbit, plasma, inhaled or intranasal, 0.011 mg/kg
[9] = male, Wistar, rat, inhaled or intranasal, 0.4 mg/kg
[10] = male, Wistar, rat, po, 1.05 mg/kg
[11] = male, beagle, dog, plasma, inhaled or intranasal, 0.26 mg/kg
[12] = male, beagle, dog, plasma, po, 0.51 mg/kg
[13] = in vivo, planned 0.2 mg/kg (actual 0.14 mg/kg)
[14] = plasma, planned 0.05 mg/kg (actual 0.03 mg/kg)
[15] = plasma, planned 0.1 mg/kg (actual 0.07 mg/kg)

Compound: CN(C)CCC=C1c2ccccc2C=Cc2ccccc21 [Cyclobenzaprine hydrochloride, cyclobenzaprine hydrochloride]
- dose excreted in the urine as unchanged drug ([1]; study with 14C-labelled drug): about 1%

- AUC(0-inf) (in vivo [2]; [7]): 2.59 ng·h/mL
- AUC(0-t) (in vivo [2]; [7]): 2.32 ng·h/mL
- Cmax (in vivo [2]; [7]): 2.83 ng/mL
- Tmax (in vivo [2]; [7]): 0.083 h
- half-life (in vivo [2]; [7]): 1.07 h
- AUC(0-inf) (in vivo [2]; po, 0.885 mg/kg): 3.26 ng·h/mL
- AUC(0-t) (in vivo [2]; po, 0.885 mg/kg): 2.54 ng·h/mL
- Cmax (in vivo [2]; po, 0.885 mg/kg): 1.2 ng/mL
- Tmax (in vivo [2]; po, 0.885 mg/kg): 1 h
- half-life (in vivo [2]; po, 0.885 mg/kg): 2.61 h
- AUC(0-inf) (in vivo [3]; [8]): 0.92 ng·h/mL
- AUC(0-t) (in vivo [3]; [8]): 0.52 ng·h/mL
- Cmax (in vivo [3]; [8]): 0.56 ng/mL
- MRT inf (in vivo [3]; [8]): 2.43 h
- MRT last (in vivo [3]; [8]): 0.87 h
- Vd/F (in vivo [3]; [8]): 28.6 L/kg
- Cl—F—pred (in vivo [3]; intranasal, 0.011 mg/kg): 199.56 mL/min/kg
- HL—Lambda—z (in vivo [3]; intranasal, 0.011 mg/kg): 1.65 h
- DNAUC (AUC normalized at 1 mg/kg dose) (in vivo [3]; intranasal, 0.26 mg/kg): 385.92
- DNAUC (AUC normalized at 1 mg/kg dose) (in vivo [3]; male, Wistar, rat, inhaled or intranasal): 130.85
- AUC(0-inf) (in vivo [3]; [9]): 52.3 ± 12.8 ng·h/mL
- AUC(0-t) (in vivo [3]; [9]): 51.2 ± 12.8 ng·h/mL
- Cmax (in vivo [3]; [9]): 31.3 ± 10.1 ng/mL
- half-life (in vivo [3]; [9]): 2.79 ± 2.35 h
- DNAUC (AUC normalized at 1 mg/kg dose) (in vivo [3]; male, Wistar, rat, po): 3.11
- AUC(0-inf) (in vivo [3]; [10]): 3.27 ± 0.42 ng·h/mL
- AUC(0-t) (in vivo [3]; [10]): 2.98 ± 0.42 ng·h/mL
- Cmax (in vivo [3]; [10]): 1.74 ± 0.95 ng/mL
- half-life (in vivo [3]; [10]): 1.43 ± 0.33 h
- AUC(0-inf) (in vivo [3]; [11]): 103 ± 26.2 ng·h/mL
- AUC(0-t) (in vivo [3]; [11]): 100 ± 25.9 ng·h/mL
- Cmax (in vivo [3]; [11]): 62.3 ± 13.8 ng/mL
- Tmax (in vivo [3]; [11]): 0.083 h
- half-life (in vivo [3]; [11]): 6.09 ± 2.27 h
- AUC(0-inf) (in vivo [3]; [12]): 7.58 ± 5.64 ng·h/mL
- AUC(0-t) (in vivo [3]; [12]): 7.03 ± 5.65 ng·h/mL
- Cmax (in vivo [3]; [12]): 1.61 ± 1.21 ng/mL
- Tmax (in vivo [3]; [12]): 1.5 h
- half-life (in vivo [3]; [12]): 2.03 ± 0.64 h
- Plasma concentrations (in vivo [3]; oral, 0.442 mg/kg, n=4, rabbits): below the limit of quantification
- DNAUC (AUC normalized at 1 mg/kg dose) (in vivo [3]; oral, 0.51 mg/kg): 13.52
- Tmax (in vivo [3]; rat, inhaled or intranasal, 0.4 mg/kg): 0.083 h
- Tmax (in vivo [3]; rat, po, 1.05 mg/kg): 0.5 (0.25-1.0) Hour
- Bioavailability versus dose [4]: Dose dependent linear bioavailability
- AUC(0-t) (in vivo [5]; [13]): 22.4 ± 10.1 ng·h/mL
- half-life (in vivo [5]; in vivo, planned 0.05 mg/kg (actual 0.03 mg/kg)): 1.9 ± 0.3 h
- half-life (in vivo [5]; in vivo, planned 0.1 mg/kg (actual 0.07 mg/kg)): 1.6 ± 0.2 h
- half-life (in vivo [5]; [13]): 2.2 ± 0.3 h
- AUC(0-t) (in vivo [5]; [14]): 4.8 ± 1.4 ng·h/mL
- AUC(0-t) (in vivo [5]; [15]): 10.6 ± 3 ng·h/mL
- Cmax (in vivo [5]; [14]): 4.6 ± 1.7 ng/mL
- Cmax (in vivo [5]; [15]): 16.4 ± 11.6 ng/mL
- Cmax (in vivo [5]; plasma, planned 0.2 mg/kg (actual 0.14 mg/kg)): 27.6 ± 26.4 ng/mL
Compound: CN(C)CCC=C1c2ccccc2C=Cc2ccccc21 [cyclobenzaprine, 3-(5H-Dibenzo[a,d]cyclohepten-5-ylidene)-N,N-dimethyl-1-propanamine]
- plasma clearance [1]: 0.7 L/min
- effective half-life ([1]; range 8-37 hours, n=18): 18 h
- stability towards oxidation [6]: very unstable
